The data set is described as follows: gradient 5% acetonitrile 3 min, to 50% in 2 min, to 85% in 15 min, held 3 min, 100 µL/min. The settings on record: column: Zorbax Extend-C18 2.1 x 50 mm; eluents: water / acetonitrile, 0.1% formic acid. A digest of the protocol: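 A Zorbax Extend-C18 column (2.1 × 50 mm, 1.8 μm) run at 100 μL/min with water and acetonitrile, both containing 0.1% formic acid, separated mixtures of ~100 pure standards. The HPLC was coupled to a quadrupole time-of-flight mass spectrometer operated in positive and negative ionization mode, with dead and dwell volumes of 40 μL and 900 μL. Each retention time was taken from a computationally picked adduct peak that was then manually inspected.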
In turn, `CCOc1ccccc1NC(=O)COc1nc(CC)nc2ccccc12` returned an RP-LC retention time of 884 s.

In the case of `O=C(CC1CCCC1)N1CCCCC1c1nncn1CC1CC1` (centres undefined), the RP-LC retention time is 781 s.

Consider `CCCCOc1c(C(=O)c2c(F)cc(C)cc2F)cnc2[nH]ncc12`, for which the RP-LC retention time amounted to 916 s.

Molecule `O=C(CN1C(=O)C(C(=O)N2CCCCC2)Sc2ccccc21)N1CCN(c2ccccn2)CC1` (centres undefined) displayed an RP-LC retention time of 634 s.

Turning to `COc1ccc(-n2/c(=N/C(=S)N(C)C)ss/c2=N\C(=S)N(C)C)cc1`, the RP-LC retention time was found to be 1210 s.

In turn, `CCCN1CCN(C(=O)C2=Cc3cc(-c4ccccc4)ccc3OC2)CC1` came in with an RP-LC retention time of 714 s.

For `COc1ccc2[nH]cc(CCNC(=O)c3c(-c4ccccn4)noc3C)c2c1`, the RP-LC retention time is 846 s.

`CCN1CCCC1CN(CC(=O)N1CCNCC1)S(=O)(=O)c1ccc(C(C)C)cc1` (centres undefined) registered an RP-LC retention time of 604 s.

As to `Cn1c(C(=O)N2CCN(c3ccccn3)CC2)cc2cc(S(=O)(=O)N3CCCCC3)ccc21`, the RP-LC retention time amounted to 699 s.

In turn, `C=CCn1c(=O)c2ccccc2n(Cc2nc(-c3ccccc3Cl)no2)c1=O` gave an RP-LC retention time of 1020 s.

Regarding `O=C(Nc1ccc(F)cc1)C1CC(=O)N(c2ccc3c(c2)CCN3C(=O)C2CC2)C1` (centres undefined), the RP-LC retention time worked out at 775 s.

`Cc1cc(=O)n2c(-c3cccc(NC(=O)c4sc(C)nc4C)c3)csc2n1` displayed an RP-LC retention time of 645 s.

The molecule `CCN(C(=O)c1ccc(C(C)(C)C)cc1)c1nc(-c2ccccc2)cs1` displayed an RP-LC retention time of 949 s.

Consider `COc1ccc(-c2nc(C)cc(C)c2CNS(=O)(=O)c2ccc(OC)cc2)cc1`, for which the RP-LC retention time worked out at 643 s.

For the molecule `COc1ccc(CC(=O)Nc2cnn(-c3ncc(N(C)C)cn3)c2)cc1Cl`, the RP-LC retention time was determined as 740 s.

With `COc1ccccc1N1CCN(C(=O)C2CCN(c3nc(NC(C)=O)ns3)CC2)CC1`, the RP-LC retention time worked out at 641 s.

The molecule `CS(=O)(=O)Nc1cccc(OCc2nnc(-c3ccccc3)o2)c1` yielded an RP-LC retention time of 798 s.

Molecule `CCc1noc(NC(C)=O)c1-c1ccc(OC)c(S(=O)(=O)N2CCC(C)CC2)c1` yielded an RP-LC retention time of 864 s.

On to `COC(=O)c1sc2ccccc2c1S(=O)(=O)N1CCC(C(N)=O)(N2CCCCC2)CC1`, for which the RP-LC retention time stood at 652 s.

Turning to `CCCn1c(C)cnc1C1CN(S(=O)(=O)c2ccc(F)c(Cl)c2)C1`, the RP-LC retention time was found to be 706 s.

In turn, `CCCNC(=O)Cn1c(CC)nc2c(c1=O)CN(Cc1ccccc1)CC2` showed an RP-LC retention time of 589 s.

Turning to `O=C(NCCCN1CCCC1)c1ccc2c(c1)nnn2Cc1ccccc1`, the RP-LC retention time came to 628 s.

`Cc1ccc(-c2nc(Cn3ccn4nc(-c5ccc(F)cc5)cc4c3=O)c(C)o2)cc1` came in with an RP-LC retention time of 1220 s.

In turn, `O=C(Cc1ccc(Cl)cc1)NCc1nc(-c2cccc(-c3csc(C4CC4)n3)c2)no1` showed an RP-LC retention time of 1120 s.

As for `O=C(Cc1csc2nc(-c3ccccc3)cn12)N1CCN(c2cccc(Cl)c2)CC1`, the RP-LC retention time was found to be 949 s.

As to `COc1cc(N2CCN(S(=O)(=O)c3cccc(C(F)(F)F)c3)CC2)nc(OC)n1`, the RP-LC retention time is 947 s.

`Cc1cc(C)cc(NC(=O)Cn2cnc(C)c(C)c2=O)c1` had an RP-LC retention time of 710 s.

For the molecule `Cc1ccc(C(C)NC(=O)C2CCN(c3nccnc3Oc3ccccc3)CC2)cc1C` (centres undefined), the RP-LC retention time was found to be 1070 s.

Consider `O=C(c1ccc(F)cc1)N1CCN(c2ccc(N3CCCC3)nn2)CC1`, for which the RP-LC retention time was found to be 604 s.

On to `COc1ccc(NC(=O)c2cn3c(n2)CCCC3)cc1F`, for which the RP-LC retention time came to 601 s.

Take `CCn1c(=O)c(N2CCCC(C(=O)N3CCN(c4cccc(OC)c4)CC3)C2)nc2ccccc21` (centres undefined): the RP-LC retention time turned out to be 1100 s.

Molecule `CCn1nccc1C(=O)Nc1c(-c2ccccc2)nc2sc(N3CCCCC3)nn12` registered an RP-LC retention time of 893 s.

`O=C(Nc1cccn2c(C3CCC3)nnc12)c1cnccn1` registered an RP-LC retention time of 692 s.

For the molecule `CCCC(=O)O[C@]1(C(=O)CO)CC[C@H]2[C@@H]3CCC4=CC(=O)CC[C@]4(C)[C@H]3[C@@H](O)C[C@@]21C`, the RP-LC retention time was found to be 1010 s.

Take `Cc1ccc(CNC(=O)C2CCCN(S(=O)(=O)c3c[nH]c(C(=O)N4CCCC4)c3)C2)o1` (centres undefined): the RP-LC retention time was determined as 729 s.

`O=c1c2cc(-c3ccc4c(c3)OCO4)nn2ccn1Cc1nc(-c2cccc(Cl)c2)no1` came in with an RP-LC retention time of 1080 s.

Take `CCCNC(=O)C1CCCN(c2ccc(SCC(=O)Nc3cccc(Cl)c3)nn2)C1` (centres undefined): the RP-LC retention time was 683 s.

As for `O=C(O)C1CCN(c2nc3ccc(-c4cncnc4)nc3s2)CC1`, the RP-LC retention time came to 674 s.

`CCn1ccc2c(cc(C(=O)Nc3cc(OC)ccc3OC)n2C)c1=O` showed an RP-LC retention time of 746 s.

On to `Cn1c(=O)c(=O)n(C)c2cc(N3CCCC3)c(NC(=O)C3CC3)cc21`, for which the RP-LC retention time was 614 s.

As to `O=C(NC1CC1)C1CCCN(c2ncnc3c2nc2n3CCCCC2)C1` (centres undefined), the RP-LC retention time turned out to be 622 s.

In the case of `Cc1noc([C@@H]2CC(F)(F)CN2C(=O)CCc2c(C)noc2C)n1`, the RP-LC retention time is 718 s.

`CCC(=O)N1CCc2c(C(=O)NC3CCCC3)cccc21` yielded an RP-LC retention time of 765 s.

Molecule `CCOc1ccc2nc(C(=O)NCCN3CCc4ccccc4C3)cn2n1` yielded an RP-LC retention time of 577 s.

Consider `CCS(=O)(=O)c1nc2ccc(NS(=O)(=O)c3ccc(C4CCCCC4)cc3)cc2s1`, for which the RP-LC retention time amounted to 1120 s.

The molecule `COC(=O)c1c(C)[nH]c(C(=O)N2CCC(CC(=O)N3CCCCCC3)CC2)c1C` displayed an RP-LC retention time of 715 s.

`O=C(COc1ccc(Br)cc1)Nc1ccnn1Cc1cccs1` displayed an RP-LC retention time of 916 s.

`COCCn1ccc2nc(C)c(C(=O)Nc3cccc(SC)c3)cc2c1=O` showed an RP-LC retention time of 746 s.

In turn, `CCOC(=O)c1c(C)[nH]c(C(=O)N2CCC(CC(=O)NCc3ccc(CC)cc3)CC2)c1C` came in with an RP-LC retention time of 869 s.

For `CCC(C)(C)C(=O)N1CCC2(CCc3nn(Cc4ccccc4)c(=O)n3CC2)CC1`, the RP-LC retention time is 811 s.

For the molecule `O=C(O)CC1(CC(=O)Nc2nc(-c3cccc4ccccc34)cs2)CCCC1`, the RP-LC retention time was determined as 1040 s.

As for `Cc1nnc(-c2coc(S(=O)(=O)N3CCCCC3C)c2)o1` (centres undefined), the RP-LC retention time came out at 809 s.

On to `CN(C)c1cc2c(Nc3ccc4c(cnn4Cc4ccccc4)c3)ncnc2cn1`, for which the RP-LC retention time was 820 s.

`CCn1cc(C2=CCN(C(=O)Nc3cc(Cl)ccc3C)CC2)c2cccnc21`: the RP-LC retention time came out at 999 s.

On to `CCCC(=O)Nc1ccc2c(c1)CN(C(=O)C1CC1)C(C(=O)N(C)C)C2` (centres undefined), for which the RP-LC retention time is 709 s.

Molecule `Cc1ccccc1CNC(=O)Cc1cn(C)c2ncccc12` displayed an RP-LC retention time of 689 s.

As for `Cc1nc(-c2noc(-c3ccc(F)cc3)n2)cn1CC(=O)Nc1cccc(F)c1`, the RP-LC retention time was determined as 897 s.

Turning to `Cc1ccccc1-c1nc(C2CCN(S(=O)(=O)c3ccccc3F)CC2)no1`, the RP-LC retention time is 1150 s.

For `Cc1cc(C)n2c(Nc3ccccc3)c(-c3ccccc3)nc2n1`, the RP-LC retention time is 671 s.

The values above are taken from the METLIN SMRT retention time set (Domingo-Almenara et al. 2019).
